Results published in PubChem BioAssay AID248 (DTP/NCI, 2004).
Inconclusive results and toxic doses are left out. No stated cut-off is given here; in the data, active means T/C of 150% or more; inactive means T/C below 125%.

Tested on: L1210 leukemia ip in BDF1 mice, survival T/C
Test: NCI In Vivo Anticancer Drug Screen. Data for tumor model L1210 Leukemia (intraperitoneal) in B6D2F1 (BDF1) mice
Settings: endpoint: mean survival time, higher = longer survival
Summary of the method: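 Tumor cells were implanted, animals were treated, and survival was followed. The result divides the treated measurement by the vehicle-control measurement.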

[1] = dose: 100.0 mg/kg/injection, schedule: Q01DX009 (ip), vehicle: Klucel (hydroxypropylcellulose) (HPC)
[2] = dose: 50.0 mg/kg/injection, schedule: Q04DX002 (ip), vehicle: Klucel (hydroxypropylcellulose) (HPC)
[3] = dose: 100.0 mg/kg/injection, schedule: Q04DX002 (ip), vehicle: Klucel (hydroxypropylcellulose) (HPC)
[4] = dose: 100.0 mg/kg/injection, schedule: Q04DX003 (ip), vehicle: Klucel (hydroxypropylcellulose) (HPC)
[5] = dose: 200.0 mg/kg/injection, schedule: Q04DX003 (ip), vehicle: Klucel (hydroxypropylcellulose) (HPC)
[6] = dose: 400.0 mg/kg/injection, schedule: Q04DX003 (ip), vehicle: Klucel (hydroxypropylcellulose) (HPC)
[7] = dose: 5.0 mg/kg/injection, schedule: Q01DX001 (ip), vehicle: saline
[8] = dose: 10.0 mg/kg/injection, schedule: Q01DX001 (ip), vehicle: saline
[9] = dose: 100.0 mg/kg/injection, schedule: Q01DX001 (ip), vehicle: saline
[10] = dose: 200.0 mg/kg/injection, schedule: Q01DX001 (ip), vehicle: saline

Measured: T/C

NNc1ncnc2nc[nH]c12
inactive: dose: 12.0 mg/kg/injection, schedule: Q01DX015 (ip), vehicle: saline 93 % of control | dose: 25.0 mg/kg/injection, schedule: Q01DX015 (ip), vehicle: saline 101 % of control | dose: 50.0 mg/kg/injection, schedule: Q01DX015 (ip), vehicle: saline 104 % of control | dose: 75.0 mg/kg/injection, schedule: Q01DX001 (ip), vehicle: saline 105 % of control | dose: 100.0 mg/kg/injection, schedule: Q01DX015 (ip), vehicle: saline 116 % of control | dose: 150.0 mg/kg/injection, schedule: Q01DX001 (ip), vehicle: saline 102 % of control | dose: 300.0 mg/kg/injection, schedule: Q01DX001 (ip), vehicle: saline 114 % of control

O=C(O)C(Br)C(Br)C(=O)Nc1ccc(F)cc1 (stereo not drawn)
inactive: dose: 100.0 mg/kg/injection, schedule: Q04DX002 (ip), vehicle: saline with Tween-80 104 % of control | dose: 200.0 mg/kg/injection, schedule: Q04DX002 (ip), vehicle: saline with Tween-80 93 % of control

C/C(=N/N)c1ccccc1O
inactive: dose: 25.6 mg/kg/injection, schedule: Q04DX002 (ip), vehicle: saline 88 % of control | dose: 160.0 mg/kg/injection, schedule: Q04DX002 (ip), vehicle: saline 92 % of control

CCCCCCCCCCCCCCCCC/C(CC)=N/Nc1ccc([N+](=O)[O-])cc1[N+](=O)[O-]
inactive: dose: 100.0 mg/kg/injection, schedule: Q01DX001 (ip), vehicle: Klucel (hydroxypropylcellulose) (HPC) 104 % of control | dose: 200.0 mg/kg/injection, schedule: Q01DX001 (ip), vehicle: Klucel (hydroxypropylcellulose) (HPC) 106 % of control | dose: 400.0 mg/kg/injection, schedule: Q01DX001 (ip), vehicle: Klucel (hydroxypropylcellulose) (HPC) 97 % of control

CCOc1cc(/C=N/NC(=O)c2ccccc2NC(=O)c2ccccc2)ccc1OC
inactive: [1] 92 % of control | dose: 200.0 mg/kg/injection, schedule: Q01DX009 (ip), vehicle: Klucel (hydroxypropylcellulose) (HPC) 92 % of control | dose: 400.0 mg/kg/injection, schedule: Q01DX009 (ip), vehicle: Klucel (hydroxypropylcellulose) (HPC) 101 % of control

O=C1c2ccccc2C(=Cc2c3ccccc3cc3ccccc23)c2ccccc21
inactive: dose: 25.0 mg/kg/injection, schedule: Q04DX002 (ip), vehicle: Klucel (hydroxypropylcellulose) (HPC) 97 % of control | [2] 106 % of control | [3] 94 % of control

CC(=O)Oc1ccc2c(c1)oc(=O)c1ccc(C)cc12
inactive: [4] 92 % of control | [5] 87 % of control | [6] 92 % of control

CC(=O)CC(=O)Nc1cccc([N+](=O)[O-])c1
inactive: [1] 98 % of control | [4] 97 % of control | [5] 91 % of control | [6] 93 % of control

c1ccc(-c2csc3n4ccccc4c[n+]23)cc1
inactive: dose: 6.25 mg/kg/injection, schedule: Q04DX002 (ip), vehicle: saline with Tween-80 97 % of control | dose: 12.5 mg/kg/injection, schedule: Q04DX002 (ip), vehicle: saline with Tween-80 100 % of control | dose: 25.0 mg/kg/injection, schedule: Q04DX002 (ip), vehicle: saline with Tween-80 93 % of control

CC(=O)C1COC(O)C1C (stereo not drawn)
inactive: dose: 0.15 mg/kg/injection, schedule: Q01DX009 (ip), vehicle: saline 102 % of control | dose: 0.31 mg/kg/injection, schedule: Q01DX009 (ip), vehicle: saline 100 % of control | dose: 0.62 mg/kg/injection, schedule: Q01DX009 (ip), vehicle: saline 105 % of control | dose: 1.25 mg/kg/injection, schedule: Q01DX009 (ip), vehicle: saline 107 % of control | dose: 2.5 mg/kg/injection, schedule: Q01DX009 (ip), vehicle: saline 112 % of control | [7] 101 % of control | [8] 113 % of control

NC(=O)NC(CCl)NC(N)=O
inactive: dose: 25.0 mg/kg/injection, schedule: Q01DX009 (ip), vehicle: acetone 95 % of control | dose: 25.0 mg/kg/injection, schedule: Q04DX003 (ip), vehicle: saline 96 % of control | dose: 50.0 mg/kg/injection, schedule: Q01DX009 (ip), vehicle: acetone 94 % of control | dose: 50.0 mg/kg/injection, schedule: Q04DX003 (ip), vehicle: saline 94 % of control | dose: 100.0 mg/kg/injection, schedule: Q01DX001 (ip), vehicle: acetone 94 % of control | dose: 100.0 mg/kg/injection, schedule: Q04DX003 (ip), vehicle: saline 89 % of control

O=C(Nc1cc(S(=O)(=O)O)cc2cc(S(=O)(=O)O)c(N=Nc3ccc([As](=O)(O)O)cc3)c(O)c12)c1ccc([N+](=O)[O-])cc1
inactive: dose: 200.0 mg/kg/injection, schedule: Q04DX003 (ip), vehicle: saline sonified 92 % of control

N#CCC[P+](c1ccccc1)(c1ccccc1)c1ccccc1
inactive: [7] 102 % of control | [8] 102 % of control | dose: 20.0 mg/kg/injection, schedule: Q01DX001 (ip), vehicle: saline 102 % of control | dose: 40.0 mg/kg/injection, schedule: Q01DX001 (ip), vehicle: saline 102 % of control | dose: 80.0 mg/kg/injection, schedule: Q01DX001 (ip), vehicle: saline 100 % of control | [9] 109 % of control | [10] 108 % of control

COc1ccc(/C=N\NC(=O)c2ccncc2)cc1
inactive: [2] 109 % of control | [3] 113 % of control | dose: 200.0 mg/kg/injection, schedule: Q04DX002 (ip), vehicle: Klucel (hydroxypropylcellulose) (HPC) 106 % of control | dose: 400.0 mg/kg/injection, schedule: Q04DX002 (ip), vehicle: Klucel (hydroxypropylcellulose) (HPC) 118 % of control

CC(c1ccccc1)n1cnc2c(Cl)ncnc21 (stereo not drawn)
inactive: [9] 98 % of control | [10] 101 % of control | dose: 400.0 mg/kg/injection, schedule: Q01DX001 (ip), vehicle: saline 110 % of control
